Data published in US6432934B1, “Methods and compositions for topical treatment of eye surface inflammation and related dry eye disease” (Advanced Vision Research, priority 1998, dated 2002).

Legend:
[1] = test system: rabbit model for meibomianitis/meibomian gland dysfunction; experiment: Conjunctival goblet-cell density, rabbit model for meibomianitis/meibomian gland dysfunction; type: in vivo, New Zealand white rabbits; conditions: intramuscular 50 mg/kg/d, five days each week, weeks 8-20 post-op
[2] = test system: rabbit model for meibomianitis/meibomian gland dysfunction; experiment: Corneal epithelial glycogen level, rabbit model for meibomianitis/meibomian gland dysfunction; type: in vivo, New Zealand white rabbits; conditions: intramuscular 50 mg/kg/d, five days each week, weeks 8-20 post-op

CN(C)[C@@H]1C(O)=C(C(N)=O)C(=O)[C@@]2(O)C(O)=C3C(=O)c4c(O)cccc4[C@@](C)(O)[C@H]3C[C@@H]12.Cl [systemic tetracycline, tetracycline hydrochloride]
effect on conjunctival goblet-cell density [1]: no effect | effect on corneal glycogen [2]: no effect
